For 31 compounds, inhibition and IC50 results are on record in ChEMBL document CHEMBL6074720, “Dihydrofolate reductase inhibitory potential of 1H-indole-based-meldrum linked 1H-1,2,3-triazoles as new anticancer derivatives: In-vitro and in-silico studies” (Eur J Med Chem, 2025).

For orientation: inhibition means how much of the control response was suppressed. In general, IC50 refers to the concentration at which inhibition is half-maximal.

Assay [1] deals with T1, Dihydrofolate reductase (Homo sapiens) (UniProt P00374).
T1 sequence (whole entry): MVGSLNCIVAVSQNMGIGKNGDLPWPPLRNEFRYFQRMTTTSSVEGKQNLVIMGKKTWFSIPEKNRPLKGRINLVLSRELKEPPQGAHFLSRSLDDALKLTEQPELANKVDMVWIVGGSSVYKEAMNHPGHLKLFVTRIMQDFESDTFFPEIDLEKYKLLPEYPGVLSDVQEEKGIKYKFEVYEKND
Briefly: Inhibition of DHFR (unknown origin) using dihydro folic acid as substrate at 0.5 mM preincubated with compound for 5 mins followed by substrate addition and measured after 30 mins in presence of NADPH by absorbance based assay relative to control. The note with it: time 35.0 min.

In the next assay the target is T2, Dihydrofolate reductase (Homo sapiens, UniProt P00374).
T2 sequence (P00374 whole entry): T1 sequence (whole entry)
Description: (§1) Inhibition of DHFR (unknown origin) using dihydro folic acid as substrate preincubated with compound for 5 mins followed by substrate addition and measured after 30 mins in presence of NADPH by absorbance based assay.

The target in assay [2] is T1, Dihydrofolate reductase (Homo sapiens). The assay is described as §1. The note with it: time 35.0 min.

Structures are written as SMILES. Calls of active or inactive are those of the source. The rule behind the calls is not given here.

As for `CC1(C)OC(=O)C(Cc2cn(-c3ccc(C(F)(F)F)cc3)nn2)(Cc2cn(Cc3ccc(C#N)cc3)c3ccccc23)C(=O)O1`, in assay [1], the inhibition came out at 91.8%. Besides, the IC50 on Dihydrofolate reductase was 8.71 µM.
Turning to `N#Cc1ccc(Cn2cc(C=O)c3ccccc32)cc1`, the inhibition in assay [1] is 25.2%. In assay [2], the inhibition result is “inactive”.
For `COc1ccc(-n2cc(CC3(Cc4cn(CCC#N)c5ccccc45)C(=O)OC(C)(C)OC3=O)nn2)cc1`, the inhibition in assay [1] was determined as 91.8%. On Dihydrofolate reductase, the IC50 amounted to 5.83 µM.
Regarding `CC1(C)OC(=O)C(Cc2cn(-c3ccc(C(F)(F)F)cc3)nn2)(Cc2cn(CCC#N)c3ccccc23)C(=O)O1`, the inhibition in assay [1] came out at 90.5%. Also, the IC50 on Dihydrofolate reductase came out at 13.9 µM.
As for `CC1(C)OC(=O)C(Cc2cn(-c3ccc(C(F)(F)F)cc3)nn2)(Cc2c[nH]c3ccccc23)C(=O)O1`, the inhibition in assay [1] turned out to be 91.3%. The IC50 on Dihydrofolate reductase was 10.1 µM.
For `Cc1ccccc1-n1cc(CC2(Cc3cn(Cc4ccc(C#N)cc4)c4ccccc34)C(=O)OC(C)(C)OC2=O)nn1` the same measures were 90.6% and 14.5 µM.
With `CC1(C)OC(=O)C(Cc2cn(CCC#N)c3ccccc23)C(=O)O1`, in assay [1], the inhibition was found to be 38.9%. Besides, the inhibition entry in assay [2] is “inactive”.
As for `CC1(C)OC(=O)C(Cc2cn(-c3ccc(Br)cc3)nn2)(Cc2cn(Cc3ccc(C#N)cc3)c3ccccc23)C(=O)O1`, in assay [1], the inhibition came out at 91.5%. Further, the IC50 at Dihydrofolate reductase was 9.1 µM.
For `CC1(C)OC(=O)C(=Cc2cn(CCC#N)c3ccccc23)C(=O)O1`, the inhibition in assay [1] was 35.3%. Also, in assay [2], the inhibition entry was “inactive”.
With `COc1ccc(OC(=O)C(Cc2cn(-c3ccc(F)cc3)nn2)Cc2cn(Cc3ccc(C#N)cc3)c3ccccc23)cc1` (configuration not stated), the inhibition in assay [1] turned out to be 90.9%. Besides, the concentration for half-maximal inhibition (IC50) on Dihydrofolate reductase stood at 16.1 µM.
As for `Cc1ccccc1-n1cc(CC2(Cc3cn(CCC#N)c4ccccc34)C(=O)OC(C)(C)OC2=O)nn1`, the inhibition in assay [1] came to 89.4%. For the same compound, the IC50 on Dihydrofolate reductase came to 18.3 µM.
With `CC1(C)OC(=O)C(Cc2cn(-c3ccccc3)nn2)(Cc2cn(Cc3ccc(C#N)cc3)c3ccccc23)C(=O)O1`, the inhibition in assay [1] stood at 86.2%. Besides, the IC50 on Dihydrofolate reductase worked out at 30.4 µM.
As to `Cc1ccccc1-n1cc(CC2(Cc3c[nH]c4ccccc34)C(=O)OC(C)(C)OC2=O)nn1`, the inhibition in assay [1] was determined as 90.7%. Further, the IC50 at Dihydrofolate reductase was determined as 19.6 µM.
With `C#CCC1(Cc2cn(Cc3ccc(C#N)cc3)c3ccccc23)C(=O)OC(C)(C)OC1=O`, in assay [1], the inhibition was found to be 41.4%. The inhibition result in assay [2] was “inactive”.
As to `C#CCC1(Cc2cn(CCC#N)c3ccccc23)C(=O)OC(C)(C)OC1=O`, the inhibition in assay [1] was 46.2%. Also, in assay [2], the inhibition entry is “inactive”.
As to `C#CCC1(Cc2c[nH]c3ccccc23)C(=O)OC(C)(C)OC1=O`, the inhibition in assay [1] was 40.2%. Also, in assay [2], the inhibition result is “inactive”.
As to `CC1(C)OC(=O)C(Cc2cn(-c3ccc(F)cc3)nn2)(Cc2cn(Cc3ccc(C#N)cc3)c3ccccc23)C(=O)O1`, in assay [1], the inhibition was determined as 91.7%. Moreover, the half-inhibitory concentration (IC50) at Dihydrofolate reductase came to 6.15 µM.
Consider `CC1(C)OC(=O)C(Cc2cn(-c3ccccc3)nn2)(Cc2c[nH]c3ccccc23)C(=O)O1`, for which, in assay [1], the inhibition amounted to 89.7%. Besides, the IC50 at Dihydrofolate reductase amounted to 23.8 µM.
For the compound `COc1ccc(-n2cc(CC3(Cc4cn(Cc5ccc(C#N)cc5)c5ccccc45)C(=O)OC(C)(C)OC3=O)nn2)cc1`, the inhibition in assay [1] amounted to 92.3%. Moreover, the IC50 at Dihydrofolate reductase stood at 3.48 µM.
For the compound `CC1(C)OC(=O)C(Cc2cn(-c3ccc(F)cc3)nn2)(Cc2c[nH]c3ccccc23)C(=O)O1`, in assay [1], the inhibition amounted to 91.7%. Moreover, the IC50 on Dihydrofolate reductase was found to be 5.1 µM.
As to `COc1ccc(OC(=O)C(Cc2cn(-c3ccc(Br)cc3)nn2)Cc2cn(Cc3ccc(C#N)cc3)c3ccccc23)cc1` (configuration not stated), the inhibition in assay [1] is 86.7%. Moreover, the IC50 on Dihydrofolate reductase came to 25.3 µM.
For `COc1ccc(OC(=O)C(Cc2cn(-c3ccc(F)cc3)nn2)Cc2cn(CCC#N)c3ccccc23)cc1` (configuration not stated), in assay [1], the inhibition turned out to be 91.3%. The IC50 on Dihydrofolate reductase is 12.8 µM.
Turning to `CC1(C)OC(=O)C(Cc2c[nH]c3ccccc23)C(=O)O1`, the inhibition in assay [1] is 36.2%. The inhibition result in assay [2] was “inactive”.
`CC1(C)OC(=O)C(Cc2cn(-c3ccc(Br)cc3)nn2)(Cc2c[nH]c3ccccc23)C(=O)O1`: the inhibition in assay [1] worked out at 91.6%. In addition, the IC50 on Dihydrofolate reductase stood at 9.57 µM.
For `N#CCCn1cc(C=O)c2ccccc21`, the inhibition in assay [1] amounted to 24.8%. The inhibition entry in assay [2] was “inactive”.
As to `CC1(C)OC(=O)C(Cc2cn(-c3ccc(F)cc3)nn2)(Cc2cn(CCC#N)c3ccccc23)C(=O)O1`, in assay [1], the inhibition turned out to be 92.5%. In addition, the IC50 at Dihydrofolate reductase came out at 4.78 µM.
In the same order, the values of `CC1(C)OC(=O)C(Cc2cn(-c3ccccc3)nn2)(Cc2cn(CCC#N)c3ccccc23)C(=O)O1` are 87.3% and 27.6 µM.
For the compound `CC1(C)OC(=O)C(=Cc2cn(Cc3ccc(C#N)cc3)c3ccccc23)C(=O)O1`, the inhibition in assay [1] was 30.2%. The inhibition entry in assay [2] is “inactive”.
On to `CC1(C)OC(=O)C(Cc2cn(-c3ccc(Br)cc3)nn2)(Cc2cn(CCC#N)c3ccccc23)C(=O)O1`, for which the inhibition in assay [1] came out at 91.6%. Besides, the 50% inhibitory concentration (IC50) on Dihydrofolate reductase stood at 11.3 µM.
Consider `COc1ccc(-n2cc(CC3(Cc4c[nH]c5ccccc45)C(=O)OC(C)(C)OC3=O)nn2)cc1`, for which the inhibition in assay [1] came to 90.9%. Besides, the IC50 on Dihydrofolate reductase was 4.36 µM.
With `CC1(C)OC(=O)C(Cc2cn(Cc3ccc(C#N)cc3)c3ccccc23)C(=O)O1`, the inhibition in assay [1] was determined as 25.5%. Also, in assay [2], the inhibition result is “inactive”.
